# Measured values from patent US8318762B2, “Pyrazolospiroketone acetyl-CoA carboxylase inhibitors” (Pfizer Inc., priority 2008, dated 2012).
# Biological target: T1, recombinant human ACC2 (Homo sapiens, UniProt O00763)
# T1 construct: a full length Cytomax clone of ACC2 was purchased from Cambridge Bioscience Limited; made in house; host or cells: CHO cells (tetracycline induction, pcDNA5 FRT TO-TOPO); purified on a Softlink Soft Release Avidin column
# Assay: Measurement of human ACC2 inhibition (recombinant hACC2 Transcreener ADP detection FP assay)
# Format: biochemical
# Conditions: not given
# Method: [3] Measurement of human ACC2 inhibition. Human ACC2 inhibition was measured using purified recombinant human ACC2 (hrACC2). […] The ACC2 was expressed in CHO cells by tetracycline induction and harvested in 5 liters of DMEM/F12 with glutamine, biotin, hygromycin and blasticidin with 1 μg/mL tetracycline (Invitrogen, Carlsbad, Calif.). The conditioned medium containing ACC2 was then applied to a Softlink Soft Release Avidin column (Promega, Madison, Wis.) and eluted with 5 mM biotin. […] The purified ACC2 was dialyzed in 50 mM Tris, 200 mM NaCl, 4 mM DTT, 2 mM EDTA, and 5% glycerol. […] The final conditions for the assay were 50 mM HEPES, pH7.5, 5 mM MgCl2, 5 mM tripotassium citrate, 2 mM DTT, 0.5 mg/mL BSA, 30 μM acetyl-CoA, 50 μM ATP, and 8 mM KHCO3. Typically, a 10 μl reaction was run for 1 hour at room temperature, and 10 μl of Transcreener stop and detect buffer was added and incubated for an additional 1 hour.
# T1 sequence (O00763 whole entry): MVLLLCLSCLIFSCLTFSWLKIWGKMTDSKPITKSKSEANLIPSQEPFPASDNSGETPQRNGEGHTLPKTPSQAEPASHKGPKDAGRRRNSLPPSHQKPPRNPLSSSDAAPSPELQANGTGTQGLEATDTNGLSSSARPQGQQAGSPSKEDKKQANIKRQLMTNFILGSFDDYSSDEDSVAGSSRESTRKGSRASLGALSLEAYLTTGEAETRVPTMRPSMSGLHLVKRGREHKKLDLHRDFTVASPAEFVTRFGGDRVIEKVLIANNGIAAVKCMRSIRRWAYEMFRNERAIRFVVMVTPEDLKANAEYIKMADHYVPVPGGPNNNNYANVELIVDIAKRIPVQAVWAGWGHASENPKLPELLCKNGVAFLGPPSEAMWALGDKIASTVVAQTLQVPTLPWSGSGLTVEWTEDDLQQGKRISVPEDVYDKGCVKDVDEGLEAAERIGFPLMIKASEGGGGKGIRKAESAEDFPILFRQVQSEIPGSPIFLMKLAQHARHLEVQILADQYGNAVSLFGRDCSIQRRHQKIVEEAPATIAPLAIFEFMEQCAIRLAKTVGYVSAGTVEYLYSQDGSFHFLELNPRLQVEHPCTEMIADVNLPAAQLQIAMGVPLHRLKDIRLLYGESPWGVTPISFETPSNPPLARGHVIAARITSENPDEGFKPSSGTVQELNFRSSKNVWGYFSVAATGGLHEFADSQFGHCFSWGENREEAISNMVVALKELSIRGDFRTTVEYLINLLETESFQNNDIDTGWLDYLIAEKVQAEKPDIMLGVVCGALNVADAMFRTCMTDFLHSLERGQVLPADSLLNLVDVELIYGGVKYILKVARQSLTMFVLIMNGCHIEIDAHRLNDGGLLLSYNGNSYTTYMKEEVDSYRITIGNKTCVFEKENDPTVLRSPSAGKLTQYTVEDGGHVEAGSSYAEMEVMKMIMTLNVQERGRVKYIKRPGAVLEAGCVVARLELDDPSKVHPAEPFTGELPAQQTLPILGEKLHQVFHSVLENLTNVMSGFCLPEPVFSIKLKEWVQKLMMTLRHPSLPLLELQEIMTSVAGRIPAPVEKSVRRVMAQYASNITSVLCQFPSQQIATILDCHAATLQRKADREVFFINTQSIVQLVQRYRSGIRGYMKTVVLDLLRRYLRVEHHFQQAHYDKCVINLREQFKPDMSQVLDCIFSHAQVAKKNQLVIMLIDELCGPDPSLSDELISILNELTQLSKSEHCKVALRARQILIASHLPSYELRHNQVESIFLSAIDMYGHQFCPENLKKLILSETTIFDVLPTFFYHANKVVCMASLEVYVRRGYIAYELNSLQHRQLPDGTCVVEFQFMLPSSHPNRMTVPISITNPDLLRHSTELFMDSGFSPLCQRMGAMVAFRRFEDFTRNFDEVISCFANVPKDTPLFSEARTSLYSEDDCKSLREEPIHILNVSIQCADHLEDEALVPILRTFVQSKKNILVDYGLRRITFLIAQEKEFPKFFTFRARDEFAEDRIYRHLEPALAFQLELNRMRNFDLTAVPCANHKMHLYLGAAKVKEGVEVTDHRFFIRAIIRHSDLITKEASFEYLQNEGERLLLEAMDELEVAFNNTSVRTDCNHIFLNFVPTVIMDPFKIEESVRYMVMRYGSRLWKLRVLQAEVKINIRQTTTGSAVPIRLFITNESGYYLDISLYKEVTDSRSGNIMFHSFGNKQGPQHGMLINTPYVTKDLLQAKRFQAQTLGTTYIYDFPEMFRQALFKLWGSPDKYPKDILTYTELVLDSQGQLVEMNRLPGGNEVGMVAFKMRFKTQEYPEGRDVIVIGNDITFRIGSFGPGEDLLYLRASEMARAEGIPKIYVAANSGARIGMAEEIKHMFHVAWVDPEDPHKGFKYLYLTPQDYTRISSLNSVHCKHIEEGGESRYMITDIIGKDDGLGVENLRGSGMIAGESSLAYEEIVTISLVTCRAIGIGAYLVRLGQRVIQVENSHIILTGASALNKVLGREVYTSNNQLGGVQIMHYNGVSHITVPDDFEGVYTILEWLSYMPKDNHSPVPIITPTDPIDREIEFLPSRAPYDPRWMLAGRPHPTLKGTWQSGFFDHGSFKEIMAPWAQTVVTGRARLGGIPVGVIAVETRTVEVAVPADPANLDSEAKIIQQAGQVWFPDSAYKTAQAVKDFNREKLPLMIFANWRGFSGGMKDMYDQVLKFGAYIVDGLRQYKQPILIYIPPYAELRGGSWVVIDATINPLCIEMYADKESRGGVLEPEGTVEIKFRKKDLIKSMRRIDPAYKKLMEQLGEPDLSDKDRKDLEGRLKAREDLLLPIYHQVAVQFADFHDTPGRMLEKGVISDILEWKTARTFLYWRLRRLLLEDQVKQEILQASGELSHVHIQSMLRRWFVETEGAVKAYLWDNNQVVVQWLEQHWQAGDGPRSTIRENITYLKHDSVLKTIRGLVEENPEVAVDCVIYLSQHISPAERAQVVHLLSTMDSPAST
row,Compound,IC50
1,Cc1cc(C(=O)N2CCC3(CC2)CC(=O)c2nn(C)cc2O3)cc2cn[nH]c12 [1.029],629 nM

# Same assay, conditions: recombinant hACC2 transcreener assay; read-out: rhACC2 IC50
row,Compound,IC50
1,CCn1nc2c(c1C)OC1(CCN(C(=O)c3ccc4ccc(OC)cc4c3)CC1)CC2=O [6.001],13 nM
2,CCn1nc2c(c1C)OC1(CCN(C(=O)c3ccc4ncccc4c3)CC1)CC2=O [15.003],179 nM
3,CC(C)(C)n1cc2c(n1)C(=O)CC1(CCN(C(=O)c3ccc4c(=O)[nH]ccc4c3)CC1)O2 [19.001],9 nM
4,COc1cc(C(=O)N2CCC3(CC2)CC(=O)c2nn(C(C)C)cc2O3)cc2c(C)n[nH]c12 [1.075],6 nM
5,Cc1cc(C(=O)N2CCC3(CC2)CC(=O)c2nn(C(C)(C)C)cc2O3)cc2ncn(C)c12 [8.001],36 nM
6,Cc1n[nH]c2ccc(C(=O)N3CCC4(CC3)CC(=O)c3nn(C5CCCC5)cc3O4)cc12 [1.088],16 nM
7,Cc1nc2ccc(C(=O)N3CCC4(CC3)CC(=O)c3nn(C(C)C)cc3O4)cc2[nH]1 [3.012],129 nM
8,CC(C)n1cc2c(n1)C(=O)CC1(CCN(C(=O)c3cc(Cl)c4[nH]ncc4c3)CC1)O2 [1.066],26 nM
9,Cc1n[nH]c2ccc(C(=O)N3CCC4(CC3)CC(=O)c3nn(C(C)(C)C)cc3O4)cc12 [1.086],3 nM
10,Cc1n[nH]c2c(C)cc(C(=O)N3CCC4(CC3)CC(=O)c3nn(C)c(C)c3O4)cc12 [1.005],117 nM
11,CCc1n[nH]c2ccc(C(=O)N3CCC4(CC3)CC(=O)c3nn(C)cc3O4)cc12 [1.095],397 nM
12,COc1c(C(=O)N2CCC3(CC2)CC(=O)c2nn(C(C)(C)C)cc2O3)ccc2cn[nH]c12 [2.020],27 nM
13,CCn1nc2c(c1C)OC1(CCN(C(=O)c3cc(C)c4nc(C)[nH]c4c3)CC1)CC2=O [3.002],54 nM
14,CCc1n[nH]c2c(OC)cc(C(=O)N3CCC4(CC3)CC(=O)c3nn(CC)c(C)c3O4)cc12 [1.045],22 nM
15,CC(C)(C)n1cc2c(n1)C(=O)CC1(CCN(C(=O)c3ccc4c(c3)OCC(=O)N4)CC1)O2 [13.003],49 nM
16,CCn1nc2c(c1C)OC1(CCN(C(=O)c3ccc4c(c3)OCC(=O)N4)CC1)CC2=O [13.002],861 nM
17,Cc1n[nH]c2ccc(C(=O)N3CCC4(CC3)CC(=O)c3nn(C(C)C)c(C)c3O4)cc12 [1.091],15 nM
18,CCn1nc2c(c1C)OC1(CCN(C(=O)c3cc(F)c4nc[nH]c4c3)CC1)CC2=O [3.020],139 nM
19,CCOc1cc(C(=O)N2CCC3(CC2)CC(=O)c2nn(C(C)C)cc2O3)cc2c(CC)n[nH]c12 [1.121],6 nM
20,CCOc1cc(C(=O)N2CCC3(CC2)CC(=O)c2nn(C(C)(C)C)cc2O3)cc2c(C)n[nH]c12 [1.116],5 nM
21,CCn1nc2c(c1C)OC1(CCN(C(=O)c3cc(OC)c4oc(C)nc4c3)CC1)CC2=O [9.005],179 nM
22,CCn1cc2c(n1)C(=O)CC1(CCN(C(=O)c3cc(C)c4[nH]ncc4c3)CC1)O2 [1.025],54 nM
23,COc1cc(C(=O)N2CCC3(CC2)CC(=O)c2nn(C(C)(C)C)c(C)c2O3)cc2cn[nH]c12 [1.054],29 nM
24,Cc1nc2ccc(C(=O)N3CCC4(CC3)CC(=O)c3nn(C(C)(C)C)cc3O4)cc2[nH]1 [3.011],15 nM
25,CCc1n[nH]c2c(C)cc(C(=O)N3CCC4(CC3)CC(=O)c3nn(CC)c(C)c3O4)cc12 [1.125],7 nM

row,Compound,IC50
1,Cc1ccc2cc(C(=O)N3CCC4(CC3)CC(=O)c3nn(C(C)(C)C)cc3O4)ccc2n1 [15.001],26 nM
2,CCn1nc2c(c1C)OC1(CCN(C(=O)c3cc(C)c4c(c3)ncn4C)CC1)CC2=O [8.003],87 nM
3,Cc1n[nH]c2c(Cl)cc(C(=O)N3CCC4(CC3)CC(=O)c3nn(C(C)C)cc3O4)cc12 [1.102],5 nM
4,CC(C)n1cc2c(n1)C(=O)CC1(CCN(C(=O)c3ccc4ncn(C)c4c3)CC1)O2 [3.015],153 nM
5,Cc1n[nH]c2cc(C(=O)N3CCC4(CC3)CC(=O)c3nn(C(C)(C)C)cc3O4)ccc12 [2.010],28 nM
6,CC(C)(C)n1cc2c(n1)C(=O)CC1(CCN(C(=O)c3ccc4[nH]nc(Cl)c4c3)CC1)O2 [1.103],5 nM
7,Cc1n[nH]c2ccc(C(=O)N3CCC4(CC3)CC(=O)c3nn(C5CCCCC5)cc3O4)cc12 [1.087],135 nM
8,CCn1nc2c(c1C)OC1(CCN(C(=O)c3cc(Cl)c4[nH]nc(C)c4c3)CC1)CC2=O [1.111],12 nM
9,CCn1nc2c(c1C)OC1(CCN(C(=O)c3ccc4cn[nH]c4c3)CC1)CC2=O [2.011],82 nM
10,Cn1cnc2cc(C(=O)N3CCC4(CC3)CC(=O)c3nn(C(C)(C)C)cc3O4)ccc21 [8.007],58 nM
11,CCc1n[nH]c2c(OC)cc(C(=O)N3CCC4(CC3)CC(=O)c3nn(C(C)(C)C)cc3O4)cc12 [1.047],2 nM
12,CCn1cc2c(n1)C(=O)CC1(CCN(C(=O)c3cc(C)c4[nH]nc(Cl)c4c3)CC1)O2 [1.108],19 nM
13,CCn1nc2c(c1C)OC1(CCN(C(=O)c3cc(C)c4[nH]c(=O)ccc4c3)CC1)CC2=O [11.001],33 nM
14,CCn1nc2c(c1C)OC1(CCN(C(=O)c3ccc4snc(N)c4c3)CC1)CC2=O [7.003],19 nM
15,CCCn1cc2c(n1)C(=O)CC1(CCN(C(=O)c3cc(C)c4[nH]nc(Cl)c4c3)CC1)O2 [1.109],12 nM
16,CCc1cc(C(=O)N2CCC3(CC2)CC(=O)c2nn(CC)c(C)c2O3)cc2cn[nH]c12 [1.056],35 nM
17,CCn1nc2c(c1C)OC1(CCN(C(=O)c3ccc4ncn(C)c4c3)CC1)CC2=O [3.016],271 nM
18,CC(C)(C)n1cc2c(n1)C(=O)CC1(CCN(C(=O)c3ccc4c(c3)NC(=O)CC4)CC1)O2 [12.004],14 nM
19,Cc1cc(C(=O)N2CCC3(CC2)CC(=O)c2nn(C4CCCCC4)cc2O3)cc2cn[nH]c12 [1.037],60 nM
20,CC(C)(C)n1cc2c(n1)C(=O)CC1(CCN(C(=O)c3ccc4cc[nH]c(=O)c4c3)CC1)O2 [21.001],16 nM
21,CC(C)n1cc2c(n1)C(=O)CC1(CCN(C(=O)c3cc(Cl)c4cn[nH]c4c3)CC1)O2 [2.006],13 nM
22,CCn1cc2c(n1)C(=O)CC1(CCN(C(=O)c3ccc4[nH]nc(C)c4c3)CC1)O2 [1.083],43 nM
23,CCC(C)n1cc2c(n1)C(=O)CC1(CCN(C(=O)c3cc(C)c4[nH]nc(C)c4c3)CC1)O2 (stereo not drawn) [1.140],2 nM
24,Cn1cc2c(n1)C(=O)CC1(CCN(C(=O)c3ccc4[nH]ncc4c3)CC1)O2 [1.071],773 nM
25,CC(C)(C)n1cc2c(n1)C(=O)CC1(CCN(C(=O)c3ccc4cnsc4c3)CC1)O2 [24.001],23 nM

row,Compound,IC50
1,CC(C)(C)n1cc2c(n1)C(=O)CC1(CCN(C(=O)c3ccc4nc[nH]c4c3)CC1)O2 [3.010],12 nM
2,Cc1nc2cc(C(=O)N3CCC4(CC3)CC(=O)c3nn(C(C)(C)C)cc3O4)ccc2n1C [8.009],47 nM
3,CCn1cc2c(n1)C(=O)CC1(CCN(C(=O)c3cc(OC)c4[nH]ncc4c3)CC1)O2 [1.053],62 nM
4,CCc1n[nH]c2ccc(C(=O)N3CCC4(CC3)CC(=O)c3nn(C(C)(C)C)cc3O4)cc12 [1.096],12 nM
5,CCn1cc2c(n1)C(=O)CC1(CCN(C(=O)c3ccc4c(C)n[nH]c4c3)CC1)O2 [2.024],60 nM
6,Cc1cc(C(=O)N2CCC3(CC2)CC(=O)c2nn(C4CCC4)cc2O3)cc2[nH]cnc12 [3.006],55 nM
7,Cc1cc(C(=O)N2CCC3(CC2)CC(=O)c2nn(C4CCC4)c(C)c2O3)cc2cn[nH]c12 [1.128],8 nM
8,Cc1c2c(nn1C(C)C)C(=O)CC1(CCN(C(=O)c3cc(Cl)c4[nH]ncc4c3)CC1)O2 [1.133],4 nM
9,Cc1cc(C(=O)N2CCC3(CC2)CC(=O)c2nn(C)c(C)c2O3)cc2cn[nH]c12 [1.030],376 nM
10,Cc1cc(C(=O)N2CCC3(CC2)CC(=O)c2nn(C(C)C)cc2O3)cc2[nH]cnc12 [3.007],24 nM
11,COc1cc(C(=O)N2CCC3(CC2)CC(=O)c2nn(C4CCC4)c(C)c2O3)cc2cn[nH]c12 [1.127],20 nM
12,Cc1cc(C(=O)N2CCC3(CC2)CC(=O)c2nn(C(C)C)cc2O3)cc2c1ncn2C [3.009],22 nM
13,CCn1nc2c(c1C)OC1(CCN(C(=O)c3cc(C)c4ncn(C)c4c3)CC1)CC2=O [3.025],49 nM
14,Cc1cc(C(=O)N2CCC3(CC2)CC(=O)c2nn(C4CC4)cc2O3)cc2cn[nH]c12 [1.144],19 nM
15,CC(C)(C)n1cc2c(n1)C(=O)CC1(CCN(C(=O)c3ccc4cccnc4c3)CC1)O2 [16.001],12 nM
16,CC(C)n1cc2c(n1)C(=O)CC1(CCN(C(=O)c3cc(F)c4nc[nH]c4c3)CC1)O2 [3.021],39 nM
17,CCc1n[nH]c2c(Cl)cc(C(=O)N3CCC4(CC3)CC(=O)c3nn(CC)cc3O4)cc12 [1.101],45 nM
18,CCOc1cc(C(=O)N2CCC3(CC2)CC(=O)c2nn(CC)c(C)c2O3)cc2c(C)n[nH]c12 [1.118],27 nM
19,CCc1nn(C)c2c(OC)cc(C(=O)N3CCC4(CC3)CC(=O)c3nn(CC)cc3O4)cc12 [1.099],20 nM
20,Cc1nc2c(F)cc(C(=O)N3CCC4(CC3)CC(=O)c3nn(C(C)C)cc3O4)cc2[nH]1 [3.024],70 nM
21,CCc1cc(C(=O)N2CCC3(CC2)CC(=O)c2nn(CC)cc2O3)cc2cn[nH]c12 [1.057],40 nM
22,CC(C)(C)n1cc2c(n1)C(=O)CC1(CCN(C(=O)c3ccc4c(c3)CCC(=O)N4)CC1)O2 [13.004],33 nM
23,CC(C)(C)n1cc2c(n1)C(=O)CC1(CCN(C(=O)c3ccc4cnoc4c3)CC1)O2 [23.005],158 nM
24,Cc1nc2ccc(C(=O)N3CCC4(CC3)CC(=O)c3nn(C(C)(C)C)cc3O4)cc2n1C [3.027],42 nM
